The record followed here is ChEMBL document CHEMBL1201862, “PubChem BioAssay data set” (2004).

Test systems include CAKI-1; EKVX; TK-10; HT-29; RXF 393; MOLT-4; SR; OVCAR-5; HL-60; LOX IMVI; MCF7; UACC-62; HCT-15; HOP-92; COLO 205; NCI-H226; NCI-H522; SF-295; UACC-257; DMS-114.
Common to all, as to assay: growth of human tumour cells (NCI), 48 h

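Five concentrations, 48 hours, 96-well plates. GI50 marks 50% less growth.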 Calls of active or inactive are those of the source. Rule as the data show it: active = GI50 up to about 1.1 µM and inactive = higher.

For the compound `Sc1nc2c(c(-c3nc(S)nc4c3CCCCCCCCCC4)n1)CCCCCCCCCC2`, the GI50 with CAKI-1, in the assay with EKVX, in the assay on TK-10, in the assay on HT-29, in the assay on RXF 393 and in the assay on MOLT-4 was > 100 µM (inactive) throughout. The GI50 in the assay on SR, in the assay with OVCAR-5, in the assay with HL-60, in the assay with LOX IMVI, with MCF7 and in the assay on UACC-62 was > 100 µM (inactive) throughout. Besides, the GI50 in the assay with HCT-15 was > 100 µM; with HOP-92, > 100 µM (inactive); in the assay with COLO 205, > 100 µM (inactive); in the assay on NCI-H226, > 100 µM (inactive); in the assay on NCI-H522, > 100 µM (inactive); in the assay on SF-295 it was > 100 µM (inactive). In the assay with UACC-257, the GI50 was > 100 µM (inactive).
Regarding `O=C1C=C(c2ccccc2)NC1(c1ccccc1)c1cc(-c2ccccc2)[nH]c1-c1ccccc1` (configuration not stated), the GI50 in the assay with CAKI-1 was > 100 µM (inactive); in the assay with EKVX, > 100 µM (inactive); in the assay on HT-29, > 100 µM (inactive); in the assay with RXF 393, 0.182 µM (active); with MOLT-4, > 100 µM (inactive); in the assay on SR, > 100 µM (inactive). Also, the GI50 in the assay on HL-60 was > 100 µM (inactive); with DMS-114, > 100 µM (inactive); in the assay with UACC-62, > 100 µM (inactive); in the assay on HCT-15, > 100 µM; in the assay on COLO 205, > 100 µM (inactive); in the assay with SF-295, > 100 µM (inactive). The GI50 in the assay on UACC-257 is > 100 µM (inactive).
As to `CCC1=C(CC)C1(C#N)[N+](=O)[O-]`, the GI50 in the assay on CAKI-1, with EKVX, with TK-10, in the assay on HT-29, in the assay on MOLT-4 and in the assay on SR was > 100 µM (inactive) throughout. The GI50 with OVCAR-5 was > 100 µM (inactive); with HL-60, > 100 µM (inactive); in the assay on DMS-114 it was > 100 µM (inactive); in the assay on LOX IMVI, > 100 µM (inactive); with UACC-62, > 100 µM (inactive); in the assay with HCT-15 it was > 100 µM. For the same compound, the GI50 in the assay on COLO 205, in the assay on NCI-H226, in the assay with NCI-H522, in the assay with SF-295 and in the assay with UACC-257 was > 100 µM (inactive) throughout.
For the compound `CCOC(=O)C1=C(C)N(Cc2ccccc2)C(=O)C1CC#N` (configuration not stated), the GI50 is > 100 µM (inactive) in the assay with CAKI-1; > 100 µM (inactive) in the assay with EKVX; > 100 µM (inactive) in the assay with HT-29; 56 µM (inactive) in the assay on RXF 393; 55.3 µM (inactive) in the assay on MOLT-4; 49.8 µM (inactive) in the assay with SR. Moreover, the GI50 is 26.7 µM (inactive) in the assay with HL-60; 45.1 µM (inactive) with DMS-114; 80 µM (inactive) in the assay with UACC-62; > 100 µM in the assay on HCT-15; 20.7 µM (inactive) in the assay with HOP-92; > 100 µM (inactive) in the assay on COLO 205. For the same compound, the GI50 in the assay with SF-295 and in the assay on UACC-257 was > 100 µM (inactive) each time.
For the compound `OC1=CN=COc2ccccc21`, the GI50 in the assay with EKVX, in the assay with TK-10, with HT-29, in the assay on RXF 393, with MOLT-4 and in the assay with HL-60 was > 100 µM (inactive) each time. In addition, the GI50 in the assay with DMS-114 is > 100 µM (inactive); in the assay on LOX IMVI, > 100 µM (inactive); in the assay on UACC-62, > 100 µM (inactive); with HCT-15, > 100 µM; in the assay with HOP-92 it was > 100 µM (inactive); with COLO 205 it was > 100 µM (inactive). The GI50 in the assay on SF-295 and in the assay on UACC-257 was > 100 µM (inactive) in each case.
For `CCCCCCCCCCCCCP(=O)(NCC(N)=O)OCC` (configuration not stated), the GI50 in the assay with EKVX is 19.2 µM (inactive); in the assay with TK-10, 18.7 µM (inactive); in the assay on HT-29 it was 17.2 µM (inactive); in the assay with RXF 393, 22.5 µM (inactive); in the assay with OVCAR-5, 19.5 µM (inactive); in the assay on HL-60, 13.8 µM (inactive). Besides, the GI50 in the assay with DMS-114 is 15.2 µM (inactive); in the assay on LOX IMVI, > 10 µM (inactive); in the assay on UACC-62, 16.3 µM (inactive); in the assay with HCT-15 it was 17.8 µM; with HOP-92, 17 µM (inactive); in the assay on COLO 205, 17.2 µM (inactive). Also, the GI50 in the assay on NCI-H226 was 17.5 µM (inactive); in the assay with NCI-H522 it was > 10 µM (inactive); with SF-295, 17.3 µM (inactive); in the assay on UACC-257, 18.9 µM (inactive).
With `CC(=O)N(C(C)=O)c1c(N)n(C)c(=O)[nH]c1=O`, the GI50 with CAKI-1, with EKVX, in the assay with HT-29, in the assay on RXF 393, in the assay with MOLT-4 and in the assay on OVCAR-5 was > 100 µM (inactive) each time. Moreover, the GI50 in the assay on HL-60 is > 100 µM (inactive); with DMS-114 it was > 100 µM (inactive); with LOX IMVI, > 100 µM (inactive); in the assay with UACC-62, > 100 µM (inactive); in the assay on HCT-15, > 100 µM; in the assay with HOP-92, > 100 µM (inactive). Moreover, the GI50 in the assay on COLO 205, with NCI-H226, in the assay on SF-295 and with UACC-257 was > 100 µM (inactive) throughout.
Consider `CC12C(=O)N(CCN)C(=O)C1C1c3ccccc3C2c2ccccc21` (configuration not stated), for which the GI50 with CAKI-1 is > 100 µM (inactive); in the assay with EKVX, > 100 µM (inactive); with TK-10, > 100 µM (inactive); in the assay with HT-29 it was 58.3 µM (inactive); with MOLT-4, > 100 µM (inactive); in the assay with OVCAR-5, > 100 µM (inactive). Moreover, the GI50 was 77.8 µM (inactive) in the assay on HL-60; > 100 µM (inactive) in the assay on DMS-114; > 100 µM (inactive) in the assay with UACC-62; > 100 µM in the assay on HCT-15; 28.9 µM (inactive) in the assay with HOP-92; > 100 µM (inactive) with COLO 205. Besides, the GI50 in the assay on NCI-H226, with NCI-H522, in the assay on SF-295 and in the assay with UACC-257 was > 100 µM (inactive) each time.
Regarding `Cn1c2ccccc2n2c(=O)c3c(c(C#N)c12)CCCC3`, the GI50 with CAKI-1, in the assay on EKVX, with TK-10, in the assay with HT-29, in the assay on RXF 393 and in the assay on MOLT-4 was > 100 µM (inactive) each time. Moreover, the GI50 with SR is > 100 µM (inactive); with OVCAR-5, > 100 µM (inactive); in the assay on HL-60, > 100 µM (inactive); in the assay with DMS-114, > 100 µM (inactive); in the assay with LOX IMVI it was > 100 µM (inactive); in the assay with HCT-15 it was > 100 µM. Further, the GI50 in the assay with COLO 205, in the assay on NCI-H226, in the assay on SF-295 and in the assay with UACC-257 was > 100 µM (inactive) each time.
Consider `C[C@]12CC[C@@H]3c4ccc(OCC(=O)O)cc4CC[C@H]3[C@@H]1CCC2=O`, for which the GI50 in the assay on CAKI-1 was > 100 µM (inactive); in the assay on EKVX, > 100 µM (inactive); in the assay on TK-10, > 100 µM (inactive); in the assay on HT-29 it was > 100 µM (inactive); with RXF 393 it was > 100 µM (inactive); in the assay on MOLT-4, 15.1 µM (inactive). In addition, the GI50 was > 100 µM (inactive) in the assay on SR; > 100 µM (inactive) in the assay with OVCAR-5; 0.13 µM (active) in the assay with HL-60; > 100 µM (inactive) in the assay with LOX IMVI; > 100 µM (inactive) in the assay with MCF7; > 100 µM (inactive) with UACC-62. Moreover, the GI50 is > 100 µM with HCT-15; > 100 µM (inactive) in the assay with HOP-92; > 100 µM (inactive) in the assay with COLO 205; > 100 µM (inactive) with NCI-H226; > 100 µM (inactive) in the assay on NCI-H522; > 100 µM (inactive) with SF-295. The GI50 in the assay on UACC-257 was > 100 µM (inactive).
In the case of `Nc1ccc(Nc2nc(F)nc(-c3c4ccccc4c4n3CCS4)n2)cc1`, the GI50 in the assay with CAKI-1 was 11 µM (inactive); in the assay on EKVX it was 18.1 µM (inactive); in the assay on TK-10, 19.6 µM (inactive); with RXF 393, 16 µM (inactive); in the assay with MOLT-4 it was 11.2 µM (inactive); in the assay on OVCAR-5, 17.6 µM (inactive). The GI50 in the assay on DMS-114 is 17.1 µM (inactive); in the assay on LOX IMVI, 10.4 µM (inactive); in the assay with HCT-15 it was 10.1 µM; with HOP-92 it was 6.18 µM (inactive); in the assay on COLO 205, 19.1 µM (inactive); in the assay with NCI-H226 it was 11.6 µM (inactive). Also, the GI50 was 14 µM (inactive) in the assay with NCI-H522, 15.7 µM (inactive) in the assay with SF-295 and > 10 µM (inactive) with UACC-257.
`Cc1cc(Cl)ccc1NC1=NC(=O)C(CC(=O)Nc2ccc([N+](=O)[O-])cc2[N+](=O)[O-])S1` (configuration not stated): the GI50 in the assay on CAKI-1 is 26.3 µM (inactive); in the assay with EKVX, 38.6 µM (inactive); in the assay with TK-10 it was 48.1 µM (inactive); with HT-29 it was 37 µM (inactive); in the assay with MOLT-4, 19.4 µM (inactive); in the assay on OVCAR-5 it was 24.2 µM (inactive). Further, the GI50 in the assay on DMS-114 was 19.9 µM (inactive); in the assay on LOX IMVI it was 34.9 µM (inactive); in the assay with UACC-62, 23.8 µM (inactive); in the assay with HCT-15, 29.5 µM; with COLO 205, 36.6 µM (inactive); in the assay on SF-295, 22.9 µM (inactive). Besides, in the assay with UACC-257, the GI50 was 28.4 µM (inactive).
As to `NC(=O)c1ccc(N)nc1` [6-AMINONICOTINAMIDE], the GI50 is 17.6 µM (inactive) in the assay on CAKI-1; 21.7 µM (inactive) with EKVX; > 400 µM (inactive) in the assay on TK-10; 3.93 µM (inactive) with HT-29; 0.138 µM (active) in the assay on RXF 393; 38.6 µM (inactive) with MOLT-4. The GI50 is 14.3 µM (inactive) in the assay with SR; > 322 µM (inactive) with OVCAR-5; 53.3 µM (inactive) with HL-60; 3.35 µM (inactive) in the assay with LOX IMVI; 0.389 µM (active) in the assay on MCF7; 16.1 µM (inactive) in the assay on UACC-62. Besides, the GI50 in the assay with HCT-15 was 17.5 µM; in the assay with HOP-92, 213 µM (inactive); in the assay on COLO 205, 14.2 µM (inactive); in the assay with NCI-H226 it was 35.7 µM (inactive); in the assay with NCI-H522, 99.8 µM (inactive); with SF-295, 5.07 µM (inactive). In the assay with UACC-257, the GI50 is 0.986 µM (active).
